How the values were obtained:
[1] = molecular target: T1, Glucocorticoid receptor (Homo sapiens) (UniProt P04150)
T1 sequence (whole entry): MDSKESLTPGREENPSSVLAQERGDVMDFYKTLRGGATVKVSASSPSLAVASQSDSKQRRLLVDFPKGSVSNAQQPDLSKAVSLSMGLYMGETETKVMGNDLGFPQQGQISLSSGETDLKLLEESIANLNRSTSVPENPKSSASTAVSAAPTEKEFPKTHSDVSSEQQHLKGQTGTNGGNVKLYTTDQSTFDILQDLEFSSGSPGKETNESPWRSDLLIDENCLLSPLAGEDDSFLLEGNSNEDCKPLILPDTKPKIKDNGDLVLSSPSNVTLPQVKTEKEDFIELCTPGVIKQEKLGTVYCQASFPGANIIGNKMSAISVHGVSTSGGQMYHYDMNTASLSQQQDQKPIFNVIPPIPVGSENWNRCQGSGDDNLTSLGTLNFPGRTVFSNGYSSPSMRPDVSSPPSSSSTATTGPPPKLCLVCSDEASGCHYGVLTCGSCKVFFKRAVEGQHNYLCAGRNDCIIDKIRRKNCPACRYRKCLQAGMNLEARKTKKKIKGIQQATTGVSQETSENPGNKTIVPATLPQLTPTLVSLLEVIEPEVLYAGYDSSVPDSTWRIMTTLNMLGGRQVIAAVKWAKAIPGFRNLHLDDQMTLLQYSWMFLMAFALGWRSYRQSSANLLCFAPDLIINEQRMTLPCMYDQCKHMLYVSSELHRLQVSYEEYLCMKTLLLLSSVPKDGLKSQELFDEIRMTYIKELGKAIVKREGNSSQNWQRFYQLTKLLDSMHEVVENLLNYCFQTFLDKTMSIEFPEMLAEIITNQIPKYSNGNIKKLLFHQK
Description: Antagonist activity as displacement of 10 nM [3H]dexamethasone from human Glucocorticoid receptor

[2] = molecular target: T2, Progesterone receptor (Homo sapiens) (UniProt P06401); experiment: Antagonist activity against human Progesterone receptor
T2 sequence (whole entry): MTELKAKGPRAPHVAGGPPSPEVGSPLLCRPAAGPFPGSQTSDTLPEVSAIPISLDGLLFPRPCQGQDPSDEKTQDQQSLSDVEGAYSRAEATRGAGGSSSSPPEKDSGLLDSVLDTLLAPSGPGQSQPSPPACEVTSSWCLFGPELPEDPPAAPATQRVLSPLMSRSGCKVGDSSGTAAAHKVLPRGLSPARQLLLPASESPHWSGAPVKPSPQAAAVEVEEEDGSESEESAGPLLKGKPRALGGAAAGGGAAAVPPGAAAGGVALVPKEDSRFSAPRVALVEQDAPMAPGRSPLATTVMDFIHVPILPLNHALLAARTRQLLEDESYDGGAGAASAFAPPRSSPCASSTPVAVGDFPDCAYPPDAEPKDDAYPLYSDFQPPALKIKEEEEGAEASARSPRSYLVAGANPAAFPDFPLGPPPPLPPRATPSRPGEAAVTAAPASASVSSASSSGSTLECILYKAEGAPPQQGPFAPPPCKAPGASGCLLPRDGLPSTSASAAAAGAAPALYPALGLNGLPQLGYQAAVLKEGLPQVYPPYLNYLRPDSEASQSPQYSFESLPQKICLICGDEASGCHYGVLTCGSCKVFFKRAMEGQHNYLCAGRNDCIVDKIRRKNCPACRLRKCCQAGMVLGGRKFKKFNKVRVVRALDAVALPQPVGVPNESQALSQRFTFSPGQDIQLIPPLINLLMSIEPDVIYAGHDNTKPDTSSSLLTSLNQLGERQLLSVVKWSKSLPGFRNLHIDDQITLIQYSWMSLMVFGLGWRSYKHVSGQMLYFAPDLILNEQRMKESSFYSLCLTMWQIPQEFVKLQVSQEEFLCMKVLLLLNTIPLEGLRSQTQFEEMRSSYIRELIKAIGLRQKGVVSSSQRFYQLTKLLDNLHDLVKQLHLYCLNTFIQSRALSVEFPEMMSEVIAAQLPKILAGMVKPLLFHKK

[3] = molecular target: T3, Mineralocorticoid receptor (Homo sapiens) (UniProt P08235); experiment: Antagonist activity against human mineralocorticoid receptor as displacement of radioligand; type: functional
T3 sequence (whole entry): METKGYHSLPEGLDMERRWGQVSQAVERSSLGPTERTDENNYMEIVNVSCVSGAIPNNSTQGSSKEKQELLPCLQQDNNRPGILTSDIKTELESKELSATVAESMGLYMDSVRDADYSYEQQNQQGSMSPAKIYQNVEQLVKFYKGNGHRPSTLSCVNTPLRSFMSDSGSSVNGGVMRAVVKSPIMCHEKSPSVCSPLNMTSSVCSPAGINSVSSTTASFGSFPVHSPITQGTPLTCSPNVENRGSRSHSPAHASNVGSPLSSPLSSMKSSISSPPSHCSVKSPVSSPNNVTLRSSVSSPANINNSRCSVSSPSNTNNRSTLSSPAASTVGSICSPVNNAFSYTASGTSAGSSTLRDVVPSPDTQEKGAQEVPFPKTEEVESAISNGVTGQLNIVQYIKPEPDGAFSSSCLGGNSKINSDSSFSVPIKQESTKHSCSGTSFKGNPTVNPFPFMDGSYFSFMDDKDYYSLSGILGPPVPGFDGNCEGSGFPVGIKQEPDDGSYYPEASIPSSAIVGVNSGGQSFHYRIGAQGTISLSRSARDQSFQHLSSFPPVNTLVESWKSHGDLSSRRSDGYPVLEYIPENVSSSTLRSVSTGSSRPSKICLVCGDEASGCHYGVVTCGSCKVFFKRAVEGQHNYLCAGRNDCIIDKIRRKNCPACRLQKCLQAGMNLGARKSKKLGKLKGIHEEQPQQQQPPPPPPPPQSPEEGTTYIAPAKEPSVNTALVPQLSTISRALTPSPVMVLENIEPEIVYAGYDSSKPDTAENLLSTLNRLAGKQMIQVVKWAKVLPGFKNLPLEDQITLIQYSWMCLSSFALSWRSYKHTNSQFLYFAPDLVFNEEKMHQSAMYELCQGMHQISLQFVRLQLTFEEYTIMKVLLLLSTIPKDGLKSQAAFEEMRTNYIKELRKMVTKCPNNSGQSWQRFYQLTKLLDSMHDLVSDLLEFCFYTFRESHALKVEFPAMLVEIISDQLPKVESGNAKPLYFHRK

- Kif [1]: 10 nM
- Kif [2]: > 1000 nM
- Kif [3]: > 1000 nM
SMILES: CC#C[C@@]1(O)CC[C@@]2(Cc3ccccc3)c3ccc(O)cc3CC[C@@H]2C1
